# In patent publication US8742102B2, “Process for enantiomeric separation of racemic dihydro-1,3,5 triazines via preferential crystallization” (Poxel, priority 2009, dated 2014):
# Experiment: Concentration of saturated solution of racemic HCl salt in EtOH, determined by HPLC
# Type: physicochemical
# Description: A saturated solution of racemic HCl salt is prepared by heating 50 g of salt in EtOH (350 ml) to reflux. A clear solution is formed. This is allowed to cool to 40° C. The mixture is seeded with a slurry of racemic HCl salt.
# Crystallization is observed. This is allowed to equilibrate overnight. The mixture is filtered into the reaction vessel (preheated to 40° C.). This is heated to 60° C. to ensure complete dissolution, cooled to 40° C. and sampled to determine the concentration by HPLC. This is then cooled to 13° C. in increments of 1° C./5 min. At 13° C. a small amount of crystallisation is observed. A seed sample is also added and this is allowed to equilibrate overnight. A sample is removed for concentration determination at 13° C.
smiles,measurement,setting,value
"CC1N=C(N)NC(N(C)C)=N1 (racemic) [A1, 2-amino-3,6-dihydro-4-dimethylamino-6-methyl-1,3,5-triazine]",Concentration of sat. solution at 40° C.,equilibrated at 40° C.,92200 µg/mL
same,Concentration at 13° C.,equilibrated overnight at 13° C.,69740 µg/mL
